Laboratory results as given in patent US7709500B2, “Chemical compounds” (AstraZeneca AB, priority 2002, dated 2010).
Where a name gives a salt, the structure may show the parent alone.

What was measured:
human H1 receptor = biological target: T1, human H1 receptor (Homo sapiens, UniProt P35367); experiment: Histamine H1 receptor binding, competition displacement of [3H]-pyrilamine; details: 1 nM [3H]-pyrilamine; membranes from recombinant CHO-K1 cells expressing the human H1 receptor; read-out: H1 pKi/[1328_S] (converted)
T1 construct: purchased Euroscreen SA, Brussels, Belgium ES-390-M; host or cells: recombinant CHO-K1 cells (membranes)
T1 sequence (P35367 whole entry): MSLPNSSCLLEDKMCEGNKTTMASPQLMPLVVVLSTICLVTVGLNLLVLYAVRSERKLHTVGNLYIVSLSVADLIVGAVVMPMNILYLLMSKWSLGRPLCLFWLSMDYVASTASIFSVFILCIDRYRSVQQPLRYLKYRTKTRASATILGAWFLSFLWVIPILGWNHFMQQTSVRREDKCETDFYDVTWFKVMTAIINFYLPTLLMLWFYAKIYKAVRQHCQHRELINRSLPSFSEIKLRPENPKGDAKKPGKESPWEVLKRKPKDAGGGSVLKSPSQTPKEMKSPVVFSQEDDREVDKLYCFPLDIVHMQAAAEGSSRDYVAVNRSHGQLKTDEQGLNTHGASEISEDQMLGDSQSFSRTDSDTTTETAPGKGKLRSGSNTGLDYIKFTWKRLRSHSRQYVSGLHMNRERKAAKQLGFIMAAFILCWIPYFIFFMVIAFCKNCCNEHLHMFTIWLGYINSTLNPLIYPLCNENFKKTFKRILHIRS

CCR3 = biological target: T2, CCR3 (Homo sapiens, UniProt P51677); experiment: Human eosinophil chemotaxis (eotaxin mediated); type: cell-based; details: read-out: % inhibition at 3 nM eotaxin (1 uM compound), human eosinophils
T2 construct: Human eosinophils were isolated from EDTA anticoagulated peripheral blood; endogenous in cells; host or cells: human peripheral blood eosinophils
T2 sequence (P51677 1-355): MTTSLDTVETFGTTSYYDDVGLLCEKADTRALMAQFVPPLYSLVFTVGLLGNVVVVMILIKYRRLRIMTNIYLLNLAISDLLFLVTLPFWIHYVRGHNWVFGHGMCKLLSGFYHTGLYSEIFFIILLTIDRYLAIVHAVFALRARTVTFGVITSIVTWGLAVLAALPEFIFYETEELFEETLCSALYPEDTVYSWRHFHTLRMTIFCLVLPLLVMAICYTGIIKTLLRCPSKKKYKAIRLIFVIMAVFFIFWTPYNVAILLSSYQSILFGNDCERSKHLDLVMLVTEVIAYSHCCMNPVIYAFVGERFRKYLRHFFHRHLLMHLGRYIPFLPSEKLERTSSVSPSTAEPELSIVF

Row | SMILES | Ki (human H1 receptor) [nM] | inhibition at 1 µM (CCR3) [%]
1 | O=C(NC[C@@H](O)CN1CCC(Oc2ccc(Cl)c(Cl)c2)CC1)c1c[nH]c2ccccc12 [Example 47, N-{(2R)-3-[4-(3,4-Dichlorophenoxy)piperidin-1-yl]-2-hydroxypropyl}-1H-indole-3-carboxamide] | 7.94 | 104
2 | N#Cc1ccc(OC2CCN(C[C@H](O)CNC(=O)c3c[nH]c(=O)c4ccccc34)CC2)cc1Cl [Example 197, N-{(2R)-3-[4-(3-Chloro-4-cyanophenoxy)piperidin-1-yl]-2-hydroxypropyl}-1-oxo-1,2-dihydroisoquinoline-4-carboxamide] | – | 103
3 | O=C(NC[C@@H](O)CN1CCC(Oc2ccc(Cl)c(Cl)c2)CC1)[C@@H](O)c1ccccc1 [Example 58, (2S)-N-{(2R)-3-[4-(3,4-Dichlorophenoxy)piperidin-1-yl]-2-hydroxypropyl}-2-hyroxy-2-phenylethanamide] | 63.1 | 104
4 | CN(C[C@@H](O)CN1CCC(Oc2ccc(Cl)c(Cl)c2)CC1)C(=O)c1n[nH]c2ccccc12 [Example 53, N-{(2S)-3-[4-(3,4-Dichlorophenoxy)piperidin-1-yl]-2-hydroxypropyl}-N-methyl-1H-indazole-3-carboxamide] | 7.94 | 105
5 | CN(C[C@@H](O)CN1CCC(Oc2ccc(Cl)c(Cl)c2)CC1)C(=O)c1c[nH]c(=O)c2ccccc12 [Example 52, N-{(2S)-3-[4-(3,4-Dichlorophenoxy)piperidin-1-yl]-2-hydroxypropyl}-N-methyl-1-oxo-1,2-dihydroisoquinoline-4-carboxamide] | 3.98 | 95
6 | CS(=O)(=O)c1ccc2c(C(=O)NC[C@@H](O)CN3CCC(Oc4ccc(C#N)c(Cl)c4)CC3)c[nH]c(=O)c2c1 [Example 206, N-{(2R)-3-[4-(3-Chloro-4-cyanophenoxy)piperidin-1-yl]-2-hydroxypropyl}-7-(methylsulfonyl)-1-oxo-1,2-dihydroisoquinoline-4-carboxamide] | – | 99
7 | O=C(NC[C@@H](O)CN1CCC(Oc2ccc(Cl)c(Cl)c2)CC1)c1n[nH]c(=O)c2ccccc12 [Example 46, N-{(2R)-3-[4-(3,4-Dichlorophenoxy)piperidin-1-yl]-2-hydroxypropyl}-oxo-3,4-dihydrophthalazine-1-carboxamide] | – | 105
8 | O=C(NC[C@@H](O)CN1CCC(Oc2ccc(Cl)c(Cl)c2)CC1)n1c(=O)[nH]c2ccccc21 [Example 45, N-{3-[4-(3,4-Dichlorophenoxy)piperidin-1-yl]-2-hydroxypropyl}-2-oxo-2,3-dihydro-1H-benzimidazole-1-carboxamide] | – | 102

The remaining lines, values ahead:

Row | Ki (human H1 receptor) [nM] | inhibition at 1 µM (CCR3) [%] | SMILES
9 | 7.94 | 103 | Cc1c(Cl)ccc(OC2CCN(C[C@H](O)CNC(=O)c3c[nH]c(=O)c4ccccc34)CC2)c1Cl [Example 17, N-{(2R)-3-[4-(2,4-Dichloro-3-methylphenoxy)piperidin-1-yl]-2-hydroxypropyl}-1-oxo-1,2-dihydroisoquinoline-4-carboxamide]
10 | 12.6 | 104 | Cc1cc(Cl)ccc1OC1CCN(C[C@@H](O)CNC(=O)c2c[nH]c(=O)c3ccccc23)CC1 [Example 186, N-{(2S)-3-[4-(4-Chloro-2-methylphenoxy)piperidin-1-yl]-2-hydroxypropyl}-1-oxo-1,2-dihydroisoquinoline-4-carboxamide acetate salt]
11 | – | 101 | NC(=O)c1c(OC2CCN(C[C@H](O)CNC(=O)c3c[nH]c(=O)c4ccccc34)CC2)ccc(Cl)c1Cl [Example 132]
12 | – | 103 | Cc1c(Cl)ccc(OC2CCN(C[C@H](O)CNC(=O)c3c[nH]c(=O)c4cc(S(C)(=O)=O)ccc34)CC2)c1Cl [Example 215, N-{(2R)-3-[4-(2,4-Dichloro-3-methylphenoxy)piperidin-1-yl]-2-hydroxypropyl}-7-(methylsulfonyl)-1-oxo-1,2-dihydroisoquinoline-4-carboxamide acetate salt]
13 | – | 106 | O=C(NC[C@@H](O)CN1CCC(Oc2ccc(Cl)c(Cl)c2)CC1)c1c[nH]c(=O)c2ccccc12 [Example 10, N-{(2R)-3-[4-(3,4-Dichlorophenoxy)piperidin-1-yl]-2-hydroxypropyl}-1-oxo-1,2-dihydroisoquinoline-4-carboxamide]
